Legend:
HIV-1 strain 92HT599 = test: Antiviral activity: p24 estimation in MT2 cells infected with HIV-1 strain 92HT599; assay type: cell-based; details: for inhibition at 0.1 µM: Human immunodeficiency virus 1, 100 nM; for inhibition at 0.1 µM / inhibition at 1 µM: HIV-1 92HT599, p24, ~96 hours; for inhibition at 1 µM: Human immunodeficiency virus 1, 1000 nM; for IC50: Human immunodeficiency virus 1, HIV-1 92HT599, p24
Method: MT2 cells were infected with HIV-1 strain 92HT599 (10 TCID 50/30000 cells). The infected cells were plated at the concentration of ˜30 000 cells per well in 96 well plate. Test compound was added to the micro plate in defined format with the final concentration of DMSO (vehicle) is not more than 1%. Incubation was carried out in CO2 incubator for ˜96 hours for viral infection. At the end of incubation period an aliquot from each well was taken for p24 estimation. The quantitation of p24 is an index for antiviral activity of the compound. Percent inhibition was calculated with reference to control values (vehicle controls). p-24 estimation was carried out using Advance biosciences kit as per the procedure detailed by supplier.

[1] = Single dose oral pharmacokinetic study; assay type: in vivo, mice; details: mouse, plasma; Mice oral PK @30 mg/kg (Table 3)
Method: The test item was administered through oral route to animals (rat/mice) at 30 mg/kg dose in a suitable vehicle at 10 ml/kg dose volume. Blood samples (˜50 uL at each time point) were collected from retro-orbital plexus using K3 EDTA as anticoagulant in eppendorf tubes at defined time intervals under light ether anesthesia. The samples were centrifuged at 3500×g to separate plasma and stored at −80° C. until analysis.
Sample analysis: Test samples were analyzed using LC-MS-MS after developing fit-for-purpose method for each of test compound.

MT2 cells = test: in vitro; assay type: cell-based; details: human, 1 µM
Method: (§1) For cyto-toxicity assay the same amount of MT2 cells as in antiviral assay without virus was added to the 96 well plates. The cyto-toxicity was measured using MTT reagent in parallel with p24 estimation. The percent viability is calculated in comparison with vehicle control.

in vitro = assay type: cell-based; details: human, Cytotoxicity % viability
Method: as §1

| SMILES | inhibition at 0.1 µM (HIV-1 strain 92HT599) [%] | inhibition at 1 µM (HIV-1 strain 92HT599) [%] | IC50 (HIV-1 strain 92HT599) [nM] | AUC(0-t) [1] [ng·h/mL] | Cmax [1] [ng/mL] | Tmax [1] [h] | Cytotoxicity % viability (MT2 cells) [%] | viability at 1 µM (in vitro) [%] |
| --- | --- | --- | --- | --- | --- | --- | --- | --- |
| C=C(C)[C@@H]1CC[C@]2(C(=O)N3CCC[C@H]3c3ncc(-c4cccnc4)[nH]3)CC[C@]3(C)[C@H](CC[C@@H]4[C@@]5(C)CC[C@H](OC(=O)CC(C)(C)CC(=O)O)C(C)(C)[C@@H]5CC[C@]43C)[C@@H]12 [Compound 11, 3,3-dimethyl-5-oxo-5-((1R,3aS,5aR,5bR,7aR,9S,11aR,11bR,13aR,13bR)-5a,5b,8,8,11a-pentamethyl-1-(prop-1-en-2-yl)-3a-((S)-2-(5-(pyridin-3-yl)-1H-imidazol-2-yl)pyrrolidine-1-carbonyl)icosahydro-1H-cyclopenta[a]chrysen-9-yloxy)pentanoic acid] | 99 | 100 | 1.51 | 59500 | 7620 | 1.25 | 84 | 80 |
| C=C(C)[C@@H]1CC[C@]2(C(=O)N3CCC[C@H]3c3ncc(-c4cccnc4)[nH]3)CC[C@]3(C)[C@H](CC[C@@H]4[C@@]5(C)CC[C@H](OC(=O)CC(C)(C)C(=O)O)C(C)(C)[C@@H]5CC[C@]43C)[C@@H]12 [Compound 10, 2,2-dimethyl-4-oxo-4-((1R,3aS,5aR,5bR,7aR,9S,11aR,11bR,13aR,13bR)-5a,5b,8,8,11a-pentamethyl-1-(prop-1-en-2-yl)-3a-((S)-2-(5-(pyridin-3-yl)-1H-imidazol-2-yl)pyrrolidine-1-carbonyl)icosahydro-1H-cyclopenta[a]chrysen-9-yloxy)butanoic acid] | 100 | 100 | 0.8 | 40500 | 5840 | 1.13 | 81 | 82 |
| C=C(C)[C@@H]1CC[C@]2(C(=O)N3CCC[C@@H]3c3nc(-c4cccnc4)no3)CC[C@]3(C)[C@H](CC[C@@H]4[C@@]5(C)CC[C@H](OC(=O)CC(C)(C)C(=O)O)C(C)(C)[C@@H]5CC[C@]43C)[C@@H]12 [Compound 3, 2,2-dimethyl-4-oxo-4-((1R,3aS,5aR,5bR,7aR,9S,11aR,11bR,13aR,13bR)-5a,5b,8,8,11a-pentamethyl-1-(prop-1-en-2-yl)-3a-((R)-2-(3-(pyridin-3-yl)-1,2,4-oxadiazol-5-yl)pyrrolidine-1-carbonyl)icosahydro-1H-cyclopenta[a]chrysen-9-yloxy)butanoic acid] | 100 | 100 | 3.34 | 66500 | 7430 | 1.75 | 100 | 97 |
| C=C(C)[C@@H]1CC[C@]2(C(=O)N3CCC[C@H]3c3ncc(-c4ccccc4)[nH]3)CC[C@]3(C)[C@H](CC[C@@H]4[C@@]5(C)CC[C@H](OC(=O)CC(C)(C)C(=O)O)C(C)(C)[C@@H]5CC[C@]43C)[C@@H]12 [Compound 8, 2,2-dimethyl-4-oxo-4-((1R,3aS,5aR,5bR,7aR,9S,11aR,11bR,13aR,13bR)-5a,5b,8,8,11a-pentamethyl-3a-((S)-2-(5-phenyl-1H-imidazol-2-yl)pyrrolidine-1-carbonyl)-1-(prop-1-en-2-yl)icosahydro-1H-cyclopenta[a]chrysen-9-yloxy)butanoic acid] | 100 | 100 | 12.9 | 143000 | 11100 | 3.75 | 88 | 96 |

Source: patent US9637516B2, “Betulinic acid proline derivatives as HIV inhibitors” (HETERO RESEARCH FOUNDATION, priority 2012, dated 2017)
